In article PMC9253268 (Frontiers in Immunology, 2022):

Assays:
MH7A cells = assay: LPS/ATP-induced pyroptosis in MH7A cells (TUNEL, immunofluorescence, Western blotting, ELISA); type: cell-based, human
Text: (§1) Mouse macrophage cell line (RAW264.7 cells, Bio-Swamp, Wuhan, China) and fibroblast-like synoviocytes in patients with RA (MH7A cells, Riken cell bank, Ibaraki, Japan) at passage numbers four to eight were used in the current experiment validations.
The conventional NLRP3 inflammasome activation cellular model was induced by lipopolysaccharide [LPS, Escherichia coli (O111:B4), Sigma-Aldrich, St Louis, MO, USA] and adenosine triphosphate (ATP disodium salt hydrate, Sigma-Aldrich, St Louis, MO, USA) as in our previous study ([22]) ( Supplementary Materials Section 15 ).
(§2) The concentration of DMSO was less than 1‰ of the solution for the in vitro experiment.
The occurrence of pyroptosis in both MH7A cells and synovium tissues in AIA-M rats was determined by in situ TUNEL staining (TUNEL Andy Fluor™ 594 Apoptosis Detection Kit, ABP Biosciences, Wuhan, China) in accordance with the manufacturer’s protocol. Fluorescence images were visualized and photographed with inverted fluorescence microscopes (MF53, MSHOT, Guangzhou, China; Olympus, BX51, Tokyo, Japan).
Double fluorescence staining was performed as described previously ([22]) ( Supplementary Materials Section 20 ). The images were visualized and photographed with a confocal microscope (Zeiss LSM 880, Carl Zeiss, Jena, Germany) or an inverted fluorescence microscope (MF53, MSHOT, Guangzhou, China).
To evaluate the regulation of BHGZD on the candidate targets in arthritic tissue samples, as well as RAW264.7 and MH7A cells, Western blotting analysis was carried out following the protocol as in our previous studies ([21], [24], [29]). TLR4, phospho-PI3K (p-PI3K), PI3K, p-AKT, p-NFκB-p65, NFκB-p65, NLRP3, ASC, caspase-1, the N-terminal domain of GSDMD (GSDMD-NT), and IL-1β antibodies were used as shown in Supplementary Table S3 . GAPDH (GAPDH Mouse monoclonal antibody, Abcam, Cambridge, UK) and β-actin (Anti-beta-Actin/β-Actin Antibody, Boster Biological Technology, California, USA) were used as loading controls for arthritic tissue samples and cultured cells, respectively.
(§3) To evaluate the therapeutic effects of two BACs from BHGZD on the regulation of the “immune-inflammation” system, the levels of cytokines, proteins, and LDH release in RAW264.7 and MH7A cellular supernatant, as well as the sera of AIA-M rats were determined using enzyme-linked immunosorbent assay (ELISA) to assess the integrity of membranes in accordance with the manufacturer’s guidelines.
(§4) To induce a conventional NLRP3 inflammasome activation, Raw264.7cells was induced
(§5) with 0.2μg/mL lipopolysaccharide [LPS, Escherichia coli (O111:B4), Sigma-Aldrich, St
(§6) Louis, MO, USA] for 4h, followed with a 3mM ATP adenosine triphosphate (ATP disodium
(§7) salt hydrate, Sigma-Aldrich, St Louis, MO, USA) for 1h of incubation at 37℃ with 5% CO2
(§8) For MH7A cells LPS/ATP-induced pyrotosis, MH7A cells were induced with 1μg/mL LPS
(§9) for 6h, followed with a 3mM ATP for 1h of incubation at 37℃ with 5% CO2 (11).

RAW264.7 cells [1] = assay: Cell viability, CCK-8 assay; type: cell-based, mouse; conditions: 0.21–6.74 ng/ml MG or 0.02–0.52 ng/ml CA treatment alone
Method: Cell viability was analyzed with the cell counting kit-8 (CCK-8) assay kit (Beyotime Biotechnology, Shanghai, China) as described in Supplementary Materials Section 16 .
Section 16 Cell proliferation assay
Cell viability was analyzed with Cell Counting Kit-8 (CCK-8) assay kit (Beyotime Biotechnology, China). Raw264.7 cells were seeded into 96-well plate, and after […]
solution was added to each well. The absorbance was measured after 4h of incubation at […]
Section 17 Flow cytometry
To identify and quantify of pyroptosis population of Raw264.7 cells, FITC Apoptosis Detection kit I staining with both the Annexin V-fluorescein isothiocyanate and propidium iodide (PI, BD Biosciences, San Jose, CA, USA) was used in accordance with manufacturer's guidelines. Briefly, Raw264.7 cells was washed twice with cold PBS and then resuspended in 1×binding buffer at a concentration of 1x10^6 cells/mL. Then, 100µL of the solution (1x10^5 cells) was transferred to a 5 mL culture tube. Subsequently, 5µL of FITC Annexin V and 5µL PI were added into cultured tube, and vortexed and incubated for 15 min at room temperature in the dark. Finally, 400µL 1×binding buffer was added into each tube, and analyzed by flow cytometry (ACEA Bioscience, San Diego, CA, USA) and NovoExpress 1.4.1 software (ACEA Bioscience, San Diego, CA, USA) within 1h.

[2] = In vivo pharmacokinetic analysis of MG and CA after oral BHGZD (UHPLC-QTRAP-MS/MS); conditions: rat plasma after oral BHGZD 21.4 g/kg each day, n = 3
Method: The pharmacokinetic parameters were calculated by Drug and Statistic software (Shanghai, China). Detailed information on the collection of blood samples and UHPLC-QTRAP-MS/MS conditions is provided in Supplementary Materials Section 13 . […]
Section 13 Pharmacokinetic analysis […]
administration of BHGZD, ultra-fast liquid chromatography coupled with triple quadrupole-linear ion trap composite mass spectrometry (UHPLC-QTRAP-MS/MS) system was […]
Bioanalytical Method Validation issued by Chinese Pharmacopoeia Commission in 2020.
The pharmacokinetic parameters were calculated by Drug and Statistic software […]
1) Collection of blood samples
Male Lewis rats (n=6, 6-8 weeks-old, 200±20g in weight) were purchased from Beijing Vital River Laboratory Animal Technology Co., Ltd. (SCCK 2016-0006, Beijing, China; n=3 per group, including normal control group and normal control+BHGZD treatment group).
Diet was prohibited for 12h before the experiment but water was freely available. Blood samples (~0.25mL) were collected from the retinal venous plexus into heparinized 1.5mL polythene tubes before administration and 0, 0.25, 0.5, 1, 2, 3, 4, 6, 8,12 and 24h after administration of BHGZD. The plasma samples were obtained after centrifuging at 12000rpm for 15min, and stored at -20℃ prior to analysis.
2) UHPLC-QTRAP-MS/MS conditions
Quantification analysis were performed on an ultra-high-performance liquid chromatography (Shimadzu Corp., Japan) tandem ion trap quadrupole QTRAP 6500 plus mass spectrometry (AB Sciex, USA). Chromatographic separation was conducted using a Poroshell 120 EC-C18 column (3.0×50mm, 2.7μm) at 40℃. The mobile phase was consisted of 0.1% formic acid–water (v/v, A) and methanol (B) and elution program were:
Mass spectrometry detector were conducted in negative mode and the detecting parameters were set as follows: curtain gas, 35 psi; collision gas, medium; ionspray voltage, 4500 V; temperature, 550℃; ion source gas 1 and 2, 55psi. Quantitative ion pairs were optimized for MG: m/z 421.2-301.1 (declustering potential: 63V, CE: 30eV) and for […]
Data acquisition and analysis

RAW264.7 cells [3] = assay: LPS/ATP-induced pyroptosis in RAW264.7 cells (flow cytometry, FAM-FLICA, immunofluorescence, Western blotting, ELISA); type: cell-based, mouse
Text: as §1, §2
Fluorescence images were visualized and photographed with a confocal microscope (Zeiss LSM 880, Carl Zeiss, Jena, Germany).
The images were visualized and photographed with a confocal microscope (Zeiss LSM 880, Carl Zeiss, Jena, Germany) or an inverted fluorescence microscope (MF53, MSHOT, Guangzhou, China).
as §3
Raw264.7 cells were maintained in DMEM (Hyclone, Logan, UT, USA), supplemented
100μg/mL streptomycin and 2mM L-glutamine (TBD, Tianjin, China) in a humidified 5%
CO2 incubator at the temperature of 37℃. The Raw264.7 cells at passage numbers four
to eight were used in the current experiment validations.
MH7A cells were cultured in sterile synoviocyte growth medium (Cell Applicatio ns, Inc.,
L-glutamine (TBD, Tianjin, China) in a humidified 5% CO2 incubator at the temperature of
37℃. MH7A at passage numbers four to eight were used in the current experiment
as §4, §5, §6, §7, §8, §9

recombinant TLR4 protein = molecular target: T1, recombinant TLR4 protein (Homo sapiens, UniProt O00206); assay: Microscale thermophoresis (MST) binding assay; conditions: 1:1 binding mode, read-out: mean KD, CA–TLR4
T1 construct: purchased Abcam ab233665
T1 sequence (O00206 24-839): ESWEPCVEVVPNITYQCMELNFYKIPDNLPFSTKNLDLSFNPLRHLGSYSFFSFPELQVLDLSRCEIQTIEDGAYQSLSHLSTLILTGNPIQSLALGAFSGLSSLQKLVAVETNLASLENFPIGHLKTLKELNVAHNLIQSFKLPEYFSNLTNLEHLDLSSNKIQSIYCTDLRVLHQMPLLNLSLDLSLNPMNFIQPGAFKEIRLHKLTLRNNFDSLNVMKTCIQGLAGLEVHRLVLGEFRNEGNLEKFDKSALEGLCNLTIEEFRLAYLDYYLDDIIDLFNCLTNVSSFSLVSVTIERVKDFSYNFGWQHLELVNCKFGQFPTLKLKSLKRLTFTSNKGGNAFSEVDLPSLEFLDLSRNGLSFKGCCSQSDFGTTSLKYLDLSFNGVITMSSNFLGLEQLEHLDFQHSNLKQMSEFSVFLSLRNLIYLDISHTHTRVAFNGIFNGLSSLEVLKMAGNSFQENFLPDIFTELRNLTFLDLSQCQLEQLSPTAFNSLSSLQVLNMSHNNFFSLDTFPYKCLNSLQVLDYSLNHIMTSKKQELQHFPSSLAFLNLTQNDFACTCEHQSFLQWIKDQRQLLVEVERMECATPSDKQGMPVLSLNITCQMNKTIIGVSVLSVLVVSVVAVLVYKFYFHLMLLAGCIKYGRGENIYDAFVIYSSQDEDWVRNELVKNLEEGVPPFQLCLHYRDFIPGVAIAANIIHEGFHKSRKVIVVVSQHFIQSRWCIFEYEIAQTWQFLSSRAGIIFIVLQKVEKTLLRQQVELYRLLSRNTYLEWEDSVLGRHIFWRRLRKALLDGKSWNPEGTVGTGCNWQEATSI
Method: The binding affinity between recombinant TLR4 protein and CA was measured by a NanoTemper Monolith NT.115 instrument (NanoTemper Technologies, Germany). The K D value was fitted by NanoTemper Monolith affinity software (NanoTemper Technologies, Germany) using 1:1 binding mode. Detailed information on the MST assay is provided in Supplementary Materials Section 12 . […]
compound was greater than 9.0×106cm/s and 40% which indicated drug-like […]
Section 11 Surface plasmon resonance (SPR) assay
SPR binding assays were analyzed with Biacore 8K (Biacore, Cytiva). Materials and reagents used in SPR assays were purchased from Cytiva. […]
UK) and CA contained in BHGZD was measured by NanoTemper Monolith NT.115 instrument (NanoTemper Technologies, Germany). […]
After the protein labeling experiment was completed, TLR4 was diluted with binding buffer (20mM HEPES, pH 7.4, 100mM NaCl and 0.005% Tween 20) to ensure that the fluorescence intensity of TLR4 during the MST assay was about 500 RU. […]
After incubation, the samples were loaded into the premium treated capillaries and measured in NanoTemper Monolith NT.115 instrument (NanoTemper Technologies, Germany). […]
The pharmacokinetic parameters were calculated by Drug and Statistic software

[4] = LPS/ATP-induced MH7A cells, all p < 0.05
[5] = LPS/ATP-induced, BHGZD 28.54 μg/ml, MG 1.69 ng/ml, CA 0.13 ng/ml, 24 h
[6] = LPS/ATP-induced RAW264.7 cells, all p < 0.05

With `O=C(O)/C=C/c1ccccc1` [CA, cinnamic acid] the GSDMD-NT (MH7A cells; LPS/ATP-induced MH7A cells, Western blotting) was “decreased”, the “expression levels of NLRP3, ASC, and caspase-1” value (MH7A cells; [4]) was “reduced” and the “levels of IL-1β, IL-18, and LDH release in the supernatant” value (MH7A cells; [4]) was “reduced”. For the same compound, the “number of TUNEL-positive MH7A cells” value (MH7A cells; [5]) was “reduced”, the “cell viability (CCK8)” value (RAW264.7 cells [1]) was “no cell toxicity” and the t1/2z ([2]; apparent elimination half-life) was 1.65 ± 1.34 h. The Cmax ([2]; male, Lewis, rat, plasma, po, 21.4 g/kg, non-compartment model, read-out: Cmax) was 120 ± 25.9 ng/mL, the AUC(0-t) ([2]; male, Lewis, 0-24 h) was 102 ± 67.8 ng·h/mL and the AUC(0-inf) ([2]; male, Lewis) was 144 ± 30.4 ng·h/mL. The MRT last ([2]; male, Lewis, read-out: MRT(0-t)) was 1.93 ± 0.35 h, the MRT inf ([2]; male, Lewis, read-out: MRT(0-∞)) was 2.26 ± 0.8 h and the GSDMD-NT (RAW264.7 cells [3]; LPS/ATP-induced RAW264.7 cells, Western blotting) was “decreased”. For the same compound, the “expression levels of NLRP3, ASC, and caspase-1” value (RAW264.7 cells [3]; [6]) was “reduced”, the “levels of IL-1β, IL-18, and LDH release in the supernatant” value (RAW264.7 cells [3]; [6]) was “reduced” and the “PI positive cell rate” value (RAW264.7 cells [3]; LPS/ATP-induced, 1.69 ng/ml MG, 0.13 ng/ml CA, 24 h, inferior to BHGZD, all p < 0.05) was “prominently reduced”. For the same compound, the “number of FLICA-positive RAW264.7 cells” value (RAW264.7 cells [3]; [5]) was “reduced”, the “inhibition on cell pyroptosis induced by LPS/ATP, alone versus combination” value (RAW264.7 cells [3]; RAW264.7 and MH7A cells, all p < 0.05) was “weaker than that in the two-BAC combination treatment group” and the Kd (recombinant TLR4 protein) was 211 µM.
